One test deals with Rho kinase 1 (ROCK-I) (Homo sapiens, UniProt Q13464). In words: In vitro Rho kinase inhibitory activity assay (ADP-Glo), Rho kinase 1. It is filed as biochemical. Particulars: 10 μM ATP, 25° C., expressed as range of activity. In a few lines:
(§1)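 Kinase activity is measured as ADP production (ADP-Glo, luminescence) after 1 hour at 25 °C with 10 μM ATP and 2.5 μM Myelin Basic Protein, following 30 min enzyme–compound preincubation. Buffer is 40 mM Tris pH7.5, 20 mM MgCl2, 0.1 mg/ml BSA, 50 μM DTT.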
For orientation: In ADP-Glo the light output rises with the ADP produced.

In another test the target is Rho kinase 2 (ROCK-II) (Homo sapiens, UniProt O75116). In words: In vitro Rho kinase inhibitory activity assay (ADP-Glo), Rho kinase 2. As to conditions: 10 μM ATP, 25° C., expressed as range of activity. It is filed as biochemical. In a few lines: as §1
Chain of Rho kinase 2 (ROCK-II) (O75116 whole entry): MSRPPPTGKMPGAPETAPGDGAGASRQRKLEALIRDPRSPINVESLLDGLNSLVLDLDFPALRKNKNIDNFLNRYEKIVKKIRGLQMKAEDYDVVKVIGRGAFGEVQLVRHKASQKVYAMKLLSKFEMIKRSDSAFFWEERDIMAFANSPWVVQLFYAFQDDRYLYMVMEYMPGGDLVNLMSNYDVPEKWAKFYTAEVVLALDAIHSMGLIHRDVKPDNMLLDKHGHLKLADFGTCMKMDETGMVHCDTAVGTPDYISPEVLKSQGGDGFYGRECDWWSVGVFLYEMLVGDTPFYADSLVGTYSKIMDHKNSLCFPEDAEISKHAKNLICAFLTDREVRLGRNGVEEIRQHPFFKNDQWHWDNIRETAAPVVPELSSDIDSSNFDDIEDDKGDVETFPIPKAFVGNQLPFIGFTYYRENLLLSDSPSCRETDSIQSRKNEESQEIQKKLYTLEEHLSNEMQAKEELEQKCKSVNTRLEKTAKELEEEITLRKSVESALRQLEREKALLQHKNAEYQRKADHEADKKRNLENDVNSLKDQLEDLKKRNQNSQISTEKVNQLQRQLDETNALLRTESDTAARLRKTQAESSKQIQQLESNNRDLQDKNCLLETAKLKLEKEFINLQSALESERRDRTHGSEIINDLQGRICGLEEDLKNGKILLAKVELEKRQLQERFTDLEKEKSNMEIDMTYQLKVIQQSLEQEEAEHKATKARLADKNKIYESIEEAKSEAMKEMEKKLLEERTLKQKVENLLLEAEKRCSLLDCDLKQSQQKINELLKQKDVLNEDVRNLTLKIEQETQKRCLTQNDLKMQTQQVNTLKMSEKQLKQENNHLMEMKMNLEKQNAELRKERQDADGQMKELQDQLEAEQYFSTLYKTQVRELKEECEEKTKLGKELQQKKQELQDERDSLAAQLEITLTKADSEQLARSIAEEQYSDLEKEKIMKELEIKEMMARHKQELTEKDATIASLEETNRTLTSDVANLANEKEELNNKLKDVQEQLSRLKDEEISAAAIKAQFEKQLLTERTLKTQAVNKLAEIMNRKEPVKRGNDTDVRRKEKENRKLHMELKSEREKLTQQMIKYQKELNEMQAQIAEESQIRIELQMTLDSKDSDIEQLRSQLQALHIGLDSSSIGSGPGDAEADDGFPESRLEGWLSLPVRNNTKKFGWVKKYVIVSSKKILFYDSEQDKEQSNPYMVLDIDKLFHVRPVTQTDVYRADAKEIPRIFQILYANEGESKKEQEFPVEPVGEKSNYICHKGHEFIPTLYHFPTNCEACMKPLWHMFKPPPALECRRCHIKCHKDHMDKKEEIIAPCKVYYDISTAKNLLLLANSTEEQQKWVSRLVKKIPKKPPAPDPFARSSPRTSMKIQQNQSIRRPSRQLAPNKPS

A value given as a limit tells only on which side of the number the result lay.

Chain of Rho kinase 1 (ROCK-I) (Q13464 whole entry): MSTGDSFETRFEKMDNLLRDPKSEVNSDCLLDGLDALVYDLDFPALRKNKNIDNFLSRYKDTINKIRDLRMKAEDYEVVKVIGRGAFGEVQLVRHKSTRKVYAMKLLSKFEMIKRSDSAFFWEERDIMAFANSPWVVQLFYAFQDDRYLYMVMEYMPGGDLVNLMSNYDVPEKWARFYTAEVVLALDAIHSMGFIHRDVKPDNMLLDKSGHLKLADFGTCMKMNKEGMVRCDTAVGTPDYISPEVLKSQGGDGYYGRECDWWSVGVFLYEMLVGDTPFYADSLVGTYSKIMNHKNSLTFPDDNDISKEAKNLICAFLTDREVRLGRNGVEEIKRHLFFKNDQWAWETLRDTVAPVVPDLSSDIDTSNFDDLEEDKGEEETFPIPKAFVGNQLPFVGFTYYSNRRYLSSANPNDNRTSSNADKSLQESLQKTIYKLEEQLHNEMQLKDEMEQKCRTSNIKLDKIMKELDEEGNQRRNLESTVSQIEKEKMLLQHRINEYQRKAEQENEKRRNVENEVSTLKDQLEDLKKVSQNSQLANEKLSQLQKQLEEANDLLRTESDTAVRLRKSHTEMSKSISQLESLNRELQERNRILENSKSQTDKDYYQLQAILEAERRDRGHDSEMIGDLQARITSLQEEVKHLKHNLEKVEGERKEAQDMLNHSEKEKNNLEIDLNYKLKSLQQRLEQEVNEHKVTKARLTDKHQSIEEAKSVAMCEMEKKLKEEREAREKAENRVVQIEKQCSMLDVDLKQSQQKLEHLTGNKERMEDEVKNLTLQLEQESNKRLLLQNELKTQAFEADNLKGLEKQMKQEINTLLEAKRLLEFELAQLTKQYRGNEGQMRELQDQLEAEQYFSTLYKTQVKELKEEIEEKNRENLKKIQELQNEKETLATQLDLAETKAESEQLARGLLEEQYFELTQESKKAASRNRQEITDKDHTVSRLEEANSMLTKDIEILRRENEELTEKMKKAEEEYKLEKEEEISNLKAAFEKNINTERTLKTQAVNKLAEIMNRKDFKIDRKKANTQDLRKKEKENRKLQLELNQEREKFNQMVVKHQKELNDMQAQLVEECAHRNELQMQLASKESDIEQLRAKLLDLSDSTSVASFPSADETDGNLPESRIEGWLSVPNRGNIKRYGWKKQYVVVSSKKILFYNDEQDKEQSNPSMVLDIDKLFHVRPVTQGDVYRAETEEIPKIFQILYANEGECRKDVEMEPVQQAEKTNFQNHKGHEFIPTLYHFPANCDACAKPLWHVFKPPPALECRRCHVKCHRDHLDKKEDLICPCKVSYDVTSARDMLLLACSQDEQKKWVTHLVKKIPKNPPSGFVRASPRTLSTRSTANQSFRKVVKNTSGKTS

One may read the Ki as the dissociation constant of the complex between target and ligand, obtained from inhibition or displacement. For `Cc1c[nH]c2nccc(Oc3ccc(CC(N)C(=O)NCCCN4CCOCC4)cc3F)c12` (stereo not drawn) [Example 79, 2-amino-3-(3-fluoro-4-((3-methyl-1H-pyrrolo[2,3-b]pyridin-4-yl)oxy)phenyl)-N-(3-morpholinopropyl)propanamide], the inhibition constant Ki on Rho kinase 1 (ROCK-I) and at Rho kinase 2 (ROCK-II) was less than 3 nM each time.

Turning to `Cc1c[nH]c2nccc(Oc3ccc(C[C@H](N)C(=O)N4CC5(CN(C)C5)C4)cc3F)c12` [Example 3, (S)-2-amino-3-(3-fluoro-4-((3-methyl-1H-pyrrolo[2,3-b]pyridin-4-yl)oxy)phenyl)-1-(6-methyl-2,6-diazaspiro[3.3]heptan-2-yl)propan-1-one], the Ki on Rho kinase 1 (ROCK-I) and on Rho kinase 2 (ROCK-II) was 3 to 30 nM in each case.

On to `Cc1c[nH]c2ncnc(Oc3ccc(C[C@H](N)C(=O)NC4CCOCC4)cc3F)c12` [Example 125, (S)-2-amino-3-(3-fluoro-4-((5-methyl-7H-pyrrolo[2,3-d]pyrimidin-4-yl)oxy)phenyl)-N-(tetrahydro-2H-pyran-4-yl)propanamide], for which the Ki at Rho kinase 1 (ROCK-I) and on Rho kinase 2 (ROCK-II) was 3 to 30 nM throughout.

As for `NC(Cc1ccc(Oc2ccnc3[nH]ccc23)cc1)C(=O)Nc1ccc(C(F)(F)F)cc1` (single isomer, unassigned) [Example 91A, 3-(4-((1H-pyrrolo[2,3-b]pyridin-4-yl)oxy)phenyl)-2-amino-N-(4-(trifluoromethyl)phenyl)propanamide], the inhibition constant (Ki) at Rho kinase 1 (ROCK-I) and on Rho kinase 2 (ROCK-II) was less than 3 nM each time.

With `Cc1c[nH]c2nccc(Oc3ccc(CC(N)C(=O)N4CCCC4c4ccccc4)cc3F)c12` (single isomer, unassigned) [Example 85, 2-amino-3-(3-fluoro-4-((3-methyl-1H-pyrrolo[2,3-b]pyridin-4-yl)oxy)phenyl)-1-(2-phenylpyrrolidin-1-yl)propan-1-one], the Ki on Rho kinase 1 (ROCK-I) and at Rho kinase 2 (ROCK-II) was 3 to 30 nM throughout.

Consider `Cc1c[nH]c2nccc(Oc3ccc(C[C@H](N)C(=O)N4CCN(C(=O)N(C)C)CC4)cc3F)c12` [Example 23, (S)-4-(2-amino-3-(3-fluoro-4-((3-methyl-1H-pyrrolo[2,3-b]pyridin-4-yl)oxy)phenyl)propanoyl)-N,N-dimethylpiperazine-1-carboxamide], for which the Ki at Rho kinase 1 (ROCK-I) and on Rho kinase 2 (ROCK-II) was less than 3 nM each time.

`CNC(=O)c1ccc(CN2CCN(C(=O)[C@@H](N)Cc3ccc(Oc4ccnc5[nH]cc(C)c45)c(F)c3)CC2)o1` [Example 166, (S)-5-((4-(2-amino-3-(3-fluoro-4-((3-methyl-1H-pyrrolo[2,3-b]pyridin-4-yl)oxy)phenyl)propanoyl)piperazin-1-yl)methyl)-N-methylfuran-2-carboxamide]: the Ki on Rho kinase 1 (ROCK-I) and at Rho kinase 2 (ROCK-II) was less than 3 nM each time.

For `N[C@@H](Cc1ccc(Oc2ccnc3[nH]ccc23)cc1)C(=O)Nc1ccc(Cl)nc1` [Example 94, (S)-3-(4-((1H-pyrrolo[2,3-b]pyridin-4-yl)oxy)phenyl)-2-amino-N-(6-chloropyridin-3-yl)propanamide], the Ki on Rho kinase 1 (ROCK-I) and at Rho kinase 2 (ROCK-II) was less than 3 nM each time.

For `CN(Cc1ccccc1)C(=O)[C@@H](N)Cc1ccc(Oc2ccnc3[nH]ccc23)cc1` [Example 93, (S)-3-(4-((1H-pyrrolo[2,3-b]pyridin-4-yl)oxy)phenyl)-2-amino-N-benzyl-N-methylpropanamide], the Ki on Rho kinase 1 (ROCK-I) and at Rho kinase 2 (ROCK-II) was 3 to 30 nM throughout.

As to `N#Cc1c[nH]c2nccc(Oc3ccc(C[C@H](N)C(=O)N4CCN(Cc5ccccc5)CC4)cc3F)c12` [Example 220, (S)-4-(4-(2-amino-3-(4-benzylpiperazin-1-yl)-3-oxopropyl)-2-fluorophenoxy)-1H-pyrrolo[2,3-b]pyridine-3-carbonitrile], the inhibition constant Ki at Rho kinase 1 (ROCK-I) and on Rho kinase 2 (ROCK-II) was less than 3 nM in each case.

As to `N[C@@H](Cc1ccc(Oc2ccnc3[nH]ccc23)cn1)C(=O)N1CCN(Cc2ccccc2)CC1` [Example 228, (S)-3-(5-((1H-pyrrolo[2,3-b]pyridin-4-yl)oxy)pyridin-2-yl)-2-amino-1-(4-benzylpiperazin-1-yl)propan-1-one], the results for the Ki at Rho kinase 1 (ROCK-I) and on Rho kinase 2 (ROCK-II) were more than 30 nM and 3 to 30 nM, respectively.

Take `Cc1c[nH]c2nccc(Oc3ccc(CC(N)C(=O)N4CCc5ccncc5C4)cc3F)c12` (stereo not drawn) [Example 67, 2-amino-1-(3,4-dihydro-2,7-naphthyridin-2(1H)-yl)-3-(3-fluoro-4-((3-methyl-1H-pyrrolo[2,3-b]pyridin-4-yl)oxy)phenyl)propan-1-one]: the inhibition constant Ki on Rho kinase 1 (ROCK-I) and on Rho kinase 2 (ROCK-II) was less than 3 nM throughout.

In the case of `COCCCNC(=O)C(N)Cc1ccc(Oc2ccnc3[nH]cc(C)c23)c(F)c1` (stereo not drawn) [Example 68, 2-amino-3-(3-fluoro-4-((3-methyl-1H-pyrrolo[2,3-b]pyridin-4-yl)oxy)phenyl)-N-(3-methoxypropyl)propanamide], the inhibitory constant (Ki) on Rho kinase 1 (ROCK-I) and on Rho kinase 2 (ROCK-II) was less than 3 nM throughout.

With `Cc1c[nH]c2nccc(Oc3ccc(CC(N)C(=O)N4CCN(Cc5ccccc5)CC4)cc3F)c12` (stereo not drawn) [Example 132, 2-amino-1-(4-benzylpiperazin-1-yl)-3-(3-fluoro-4-((3-methyl-1H-pyrrolo[2,3-b]pyridin-4-yl)oxy)phenyl)propan-1-one], the inhibition constant (Ki) at Rho kinase 1 (ROCK-I) and on Rho kinase 2 (ROCK-II) was less than 3 nM throughout.

As for `COCc1c[nH]c2nccc(Oc3ccc(C[C@H](N)C(=O)N4CCN(C)CC4)cc3F)c12` [Example 215, (S)-2-amino-3-(3-fluoro-4-((3-(methoxymethyl)-1H-pyrrolo[2,3-b]pyridin-4-yl)oxy)phenyl)-1-(4-methylpiperazin-1-yl)propan-1-one], the Ki at Rho kinase 1 (ROCK-I) and on Rho kinase 2 (ROCK-II) was 3 to 30 nM each time.

Regarding `Cc1c[nH]c2nccc(Oc3ccc(C[C@H](N)C(=O)NC4(CCO)CCCCC4)cc3F)c12` [Example 36, (S)-2-amino-3-(3-fluoro-4-((3-methyl-1H-pyrrolo[2,3-b]pyridin-4-yl)oxy)phenyl)-N-(1-(2-hydroxyethyl)cyclohexyl)propanamide], the inhibition constant (Ki) on Rho kinase 1 (ROCK-I) and on Rho kinase 2 (ROCK-II) was less than 3 nM throughout.

Consider `Cc1c[nH]c2nccc(Oc3ccc(C[C@H](N)C(=O)N4CC[C@H](N(C)C)C4)cc3F)c12` [Example 49, (S)-2-amino-1-((S)-3-(dimethylamino)pyrrolidin-1-yl)-3-(3-fluoro-4-((3-methyl-1H-pyrrolo[2,3-b]pyridin-4-yl)oxy)phenyl)propan-1-one], for which the Ki at Rho kinase 1 (ROCK-I) and at Rho kinase 2 (ROCK-II) was less than 3 nM in each case.

`COCCN1CCN(C(=O)C(N)Cc2ccc(Oc3ccnc4[nH]cc(C)c34)c(F)c2)CC1` (stereo not drawn) [Example 19, 2-amino-3-(3-fluoro-4-((3-methyl-1H-pyrrolo[2,3-b]pyridin-4-yl)oxy)phenyl)-1-(4-(2-methoxyethyl)piperazin-1-yl)propan-1-one]: the Ki at Rho kinase 1 (ROCK-I) and on Rho kinase 2 (ROCK-II) was less than 3 nM each time.

With `Cc1c[nH]c2nccc(Oc3ccc(C[C@H](N)C(=O)NC4(CO)CCN(C)CC4)cc3F)c12` [Example 37, (S)-2-amino-3-(3-fluoro-4-((3-methyl-1H-pyrrolo[2,3-b]pyridin-4-yl)oxy)phenyl)-N-(4-(hydroxymethyl)-1-methylpiperidin-4-yl)propanamide], the Ki on Rho kinase 1 (ROCK-I) and at Rho kinase 2 (ROCK-II) was less than 3 nM throughout.

`N[C@@H](Cc1ccc(Oc2ccnc3[nH]cc(-c4ccc(O)cc4)c23)cc1)C(=O)NCCc1ccncc1` [Example 206, (S)-2-amino-3-(4-((3-(4-hydroxyphenyl)-1H-pyrrolo[2,3-b]pyridin-4-yl)oxy)phenyl)-N-(2-(pyridin-4-yl)ethyl)propanamide]: the Ki on Rho kinase 1 (ROCK-I) and at Rho kinase 2 (ROCK-II) was less than 3 nM in each case.

As for `N#Cc1ccc(-c2c[nH]c3nccc(Oc4ccc(C[C@H](N)C(=O)N5CCN(Cc6ccccc6)CC5)cc4)c23)s1` [Example 195, (S)-5-(4-(4-(2-amino-3-(4-benzylpiperazin-1-yl)-3-oxopropyl)phenoxy)-1H-pyrrolo[2,3-b]pyridin-3-yl)thiophene-2-carbonitrile], the inhibitory constant (Ki) at Rho kinase 1 (ROCK-I) and on Rho kinase 2 (ROCK-II) was less than 3 nM throughout.

Take `N[C@@H](Cc1ccc(Oc2ncnc3[nH]ccc23)cc1)C(=O)NC1CCCCC1` [Example 225, (S)-3-(4-((7H-pyrrolo[2,3-d]pyrimidin-4-yl)oxy)phenyl)-2-amino-N-cyclohexylpropanamide]: the Ki on Rho kinase 1 (ROCK-I) and on Rho kinase 2 (ROCK-II) was more than 30 nM throughout.

For `Cc1c[nH]c2nccc(Oc3ccc(C[C@H](N)C(=O)NC4CCOCC4)cc3)c12` [Example 90, (S)-2-amino-3-(4-((3-methyl-1H-pyrrolo[2,3-b]pyridin-4-yl)oxy)phenyl)-N-(tetrahydro-2H-pyran-4-yl)propanamide], the Ki at Rho kinase 1 (ROCK-I) and on Rho kinase 2 (ROCK-II) was less than 3 nM each time.

For `N[C@@H](Cc1ccc(Oc2ccnc3[nH]cc(CO)c23)c(F)c1)C(=O)NC1CCCCC1` [Example 208, (S)-2-amino-N-cyclohexyl-3-(3-fluoro-4-((3-(hydroxymethyl)-1H-pyrrolo[2,3-b]pyridin-4-yl)oxy)phenyl)-propanamide], the Ki on Rho kinase 1 (ROCK-I) and on Rho kinase 2 (ROCK-II) was less than 3 nM in each case.

Consider `N[C@@H](Cc1ccc(Oc2ccnc3[nH]ccc23)cc1)C(=O)NCc1ccccc1` [Example 97, (S)-3-(4-((1H-pyrrolo[2,3-b]pyridin-4-yl)oxy)phenyl)-2-amino-N-benzylpropanamide], for which the Ki at Rho kinase 1 (ROCK-I) and at Rho kinase 2 (ROCK-II) was 3 to 30 nM throughout.

Take `O=C(NC(Cc1ccc(Oc2ccnc3[nH]ccc23)cc1)C(=O)Nc1ccccc1)C1CCNC1` (stereo not drawn) [Example 179, N-(3-(4-((1H-pyrrolo[2,3-b]pyridin-4-yl)oxy)phenyl)-1-oxo-1-(phenylamino)propan-2-yl)pyrrolidine-3-carboxamide]: the inhibition constant (Ki) on Rho kinase 1 (ROCK-I) and on Rho kinase 2 (ROCK-II) was 3 to 30 nM throughout.

In the case of `Cc1c[nH]c2nccc(Oc3ccc(CC(N)C(=O)NC4CCN(Cc5ccccc5)CC4)cc3F)c12` (stereo not drawn) [Example 83, 2-amino-N-(1-benzylpiperidin-4-yl)-3-(3-fluoro-4-((3-methyl-1H-pyrrolo[2,3-b]pyridin-4-yl)oxy)phenyl)propanamide], the inhibitory constant (Ki) at Rho kinase 1 (ROCK-I) and on Rho kinase 2 (ROCK-II) was less than 3 nM each time.
